The values that follow come from patent US4992444A, “Antifolate agents” (priority 1986, dated 1991).

Each structure is given as a SMILES string. Read-outs that look alike come from different tables or passages of the source.

Data set [1] relates to M5076 reticulum cell sarcoma. The format is in vivo. Conditions: for Death: mouse, in vivo.
Description: Tumor: implanted intramuscularly on day 1
Drug: in 10% DMSO/arachis oil administered daily for
17 days by intraperitoneal route.
*Test/Control assessed at day 24
Data set [2] deals with P388 lymphocytic leukaemia. Briefly: In vivo antitumor screening against P388 lymphocytic leukaemia in mice. Conditions: Mus musculus, P388, ip, free base, intraperitoneal, NCI protocols, read-out: Optimum T/C; for response vs control in vivo at 200 mg/kg: optimum dose 200 mg/kg; for response vs control in vivo at 240 mg/kg: optimum dose 240 mg/kg; for response vs control in vivo at 100 mg/kg: optimum dose 100 mg/kg.
Description: ^a All compounds administered to mice as free bases via
intraperitoneal route according to NCI protocols.

The subject of data set [3] is L1210 murine leukaemia cells. Briefly: In vitro cytotoxicity against L1210 cells. Format: cell-based. Conditions: Mus musculus. As for the experimental part: In vitro cytotoxicity studies
Cells were seeded routinely every 72 hours at 10^4 cells.ml^-1 and counted as 10^6 cells.ml^-1 prior to each experiment and counts were performed following incubation (5% CO2 in air at full humidity) for 72 hours at 37° C., with the appropriate concentration of drug.

The next data set deals with T1, rat liver DHFR (Rattus norvegicus, UniProt Q920D2).
T1 construct: from tissue; host or cells: liver of male Wistar rats; homogenate supernatant, pH 5.1 step, dialysed, partially purified
T1 sequence (Q920D2 1-187): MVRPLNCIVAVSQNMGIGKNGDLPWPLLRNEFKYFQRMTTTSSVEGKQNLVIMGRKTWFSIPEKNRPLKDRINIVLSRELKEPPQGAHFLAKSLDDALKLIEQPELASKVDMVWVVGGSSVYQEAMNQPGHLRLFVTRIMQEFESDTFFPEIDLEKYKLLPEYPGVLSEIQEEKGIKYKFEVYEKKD
Briefly: Inhibition of rat liver DHFR (spectrophotometric assay; I50 and Ki). Format: biochemical. As for the experimental part:
All solutions were prepared on the day previous to the experiment and stored in the dark at 4° C. prior to use.
The stock solutions were diluted, as necessary, immediately before use to produce the required inhibitor concentration.
B.1 Preparation of partially purified DHFR
All further manipulations were performed at 4° C.: the livers (30.7 g) were transferred to a Waring blender to which approximately 8 volumes of water was added (final volume c.a. 300 ml), whereupon the mixture was homogenised for 2 minutes for periods of 30s, allowing 30s between each run to minimise heating. Liver homogenate was centrifuged at approximately 20,000 g for 20 minutes and the pellet was discarded. The supernatant liquid was adjusted to pH 5.1 with dilute acetic acid (1.0 M initially and 0.1 M finally) and after centrifugation at 27,000 g for a further 20 minutes, the clear wine-red solution was transferred to visking tubing (2.5 cm diameter) and dialysed for 12 hours against 0.01 sodium acetate buffer solution. The dialysate was examined and if turbid, centrifuged again at 27,000 g for 20 minutes. The clear preparation was transferred to sterile plastic stoppered tubes (10 ml) and stored at -10° C. prior to use.
B.2. Preparation of reagent solutions
The buffer was kept at 4° C. to prevent bacterial growth and discarded after 3 days.
The solution was maintained at 0° C.
An aqueous solution of NADPH (2 mg.ml^-1, 2.0 mM) was prepared immediately prior to use and again maintained at 0° C.
B.3 Assay for inhibitor activity
Plastic disposable cuvettes were used throughout.
The assay was carried out as follows: NADPH (0.1 ml) and the enzyme preparation (0.1 ml) were incubated at 30° C. for 5 minutes in phosphate buffer (total volume 1.9 ml).
Reference cuvettes were set up containing NADPH, buffer, inhibitor if appropriate and dihydrofolate, but without enzyme (Table A).
Enzyme activity was estimated from the slope of the change of absorbance with time and this was arbitrarily designated as 100% for the uninhibited enzyme.
The remaining inhibitors were selected for I50 determinations and inhibitory activity was evaluated in duplicate at a minimum of four inhibitor concentrations, from which the I50 value was determined by a graphical method.
Compounds selected for inhibition constant (KI) determinations were assayed following an identical method to that described above except that inhibitory activity was measured at a minimum of ten inhibitor concentrations, again in duplicate, from which the appropriate KI values were determined by a Zone B analysis.

Where [4] appears, read: 0.75 mg/kg/day, Test/Control assessed at day 24, i.p.
The mark [5] stands for this setting: 3.125 mg/kg/day, Test/Control assessed at day 24, i.p.
Where [6] appears, read: 6.25 mg/kg/day, Test/Control assessed at day 24, i.p.
Where [7] appears, read: 12.5 mg/kg/day, Test/Control assessed at day 24, i.p.
[8] abbreviates: Table IV, 72 hours, read-out: IC50 (L1210 cells).
[9] abbreviates: Table I, solvent B = 0.1 M hydrochloric acid, read-out: I50, inhibition of rat liver DHFR.
Where [10] appears, read: Table IV, read-out: I50, rat liver dihydrofolate reductase.
[11] abbreviates: Table III, drug concentration necessary to reduce the 72 hour cell count to 50% of control, read-out: IC50, cytotoxicity against L1210 cells in vitro.
[12] abbreviates: Table II, rat liver DHFR, 95% confidence limits, read-out: Ki.

What is called Ki is the dissociation constant of the complex between target and ligand, obtained from inhibition or displacement.
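For T/C × 100 in this document: mice bearing tumor implanted intramuscularly on day 1, given compound intraperitoneally once a day for 17 days in arachis oil containing 10% DMSO.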
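For Tumor volume in this document: mice bearing tumor implanted intramuscularly on day 1, given compound intraperitoneally once a day for 17 days in arachis oil containing 10% DMSO.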

For `CCc1nc(N)nc(N)c1-c1ccc(NCc2ccc(C)cc2)c([N+](=O)[O-])c1` [Compound 25, 2,4-Diamino-5-[4-(4-methylbenzylamino)-3-nitrophenyl]-6-ethylpyrimidine], the “T/C × 100” value in data set [1] (ip, 3.125 mg/kg, 576 h) is 76; in data set [1] (ip, 6.25 mg/kg, 576 h), 44; in data set [1] (ip, 12.5 mg/kg, 576 h) it was 24; in data set [1] (ip, 25 mg/kg, 576 h), 20. The “Death” value in data set [1] is on record as “Dead”.
For the molecule `CCc1nc(N)nc(N)c1-c1ccc(NCCc2ccccc2)c([N+](=O)[O-])c1` [Compound 10, 2,4-Diamino-6-ethyl-5-(3-nitro-4-phenethylaminophenyl)-pyrimidine], in data set [2], the response vs control in vivo at 200 mg/kg came out at 142%.
As for `CCc1nc(N)nc(N)c1-c1ccc(N(C)Cc2ccc(C(=O)O)cc2)c([N+](=O)[O-])c1.O` [Compound 20, 2,4-Diamino-6-ethyl-5-{4-[N-(4-carboxybenzyl)-N-methylamino]-3-nitrophenyl}pyrimidine monohydrate], the “T/C × 100” value in data set [1] (setting [4]) worked out at 100; in data set [1] (setting [5]), 107; in data set [1] (setting [6]), 89; in data set [1] (setting [7]) it was 100. The IC50 in data set [3] (setting [8]) is 15 nM.
Take `CCc1nc(N)nc(N)c1-c1ccc(OC)c([N+](=O)[O-])c1` [OMe]: the IC50 on rat liver DHFR (setting [9]) was 180 nM. Further, the response vs control in vivo at 120 mg/kg in data set [2] (optimum dose 120 mg/kg) is 189%.
As for `CCc1nc(N)nc(N)c1-c1ccc(NCc2ccc(C(F)(F)F)cc2)c([N+](=O)[O-])c1` [Compound 28, 2,4-diamino-5-[3-nitro-4-(4-trifluoromethylbenzylamino)phenyl]-6-ethylpyrimidine], the “T/C × 100” value is 40 in data set [1] (ip, 3.125 mg/kg, 576 h); 20 in data set [1] (ip, 6.25 mg/kg, 576 h); 12 in data set [1] (ip, 12.5 mg/kg, 576 h); < 8 in data set [1] (ip, 25 mg/kg, 576 h). Besides, the Tumor volume in data set [1] (ip, 6.25 mg/kg) came out at 454 mm^3; in data set [1] (ip, 12.5 mg/kg) it was 265 mm^3. Besides, in data set [1], the “Death” value is “Dead”.
In the case of `CCc1nc(N)nc(N)c1-c1ccc(NCc2ccc(Cl)c(Cl)c2)c([N+](=O)[O-])c1` [Compound 23, 2,4-Diamino-5-[4-(3,4-dichlorobenzylamino)-3-nitrophenyl]-6-ethylpyrimidine], the “T/C × 100” value is 48 in data set [1] (ip, 3.125 mg/kg, 576 h); 36 in data set [1] (ip, 6.25 mg/kg, 576 h); 16 in data set [1] (ip, 12.5 mg/kg, 576 h); < 8 in data set [1] (ip, 25 mg/kg, 576 h); < 8 in data set [1] (ip, 50 mg/kg, 576 h).
As to `CCc1nc(N)nc(N)c1-c1ccc(NCc2ccc(OC)cc2)c([N+](=O)[O-])c1` [Compound 18, 2,4-Diamino-6-ethyl-5-{4-[N-(4-methoxybenzyl)amino]-3-nitrophenyl}pyrimidine], the IC50 at rat liver DHFR (setting [10]) was determined as 21 nM; in data set [3] (setting [8]), 50 nM. Besides, the Ki at rat liver DHFR (Table IV, read-out: Ki, rat liver dihydrofolate reductase) is 0.088 nM.
`CCc1nc(N)nc(N)c1-c1ccc(NCc2ccccc2)c([N+](=O)[O-])c1` [Compound 5, 2,4-Diamino-5-(4-benzylamino-3-nitrophenyl)-6-ethylpyrimidine]: the response vs control in vivo at 240 mg/kg in data set [2] worked out at 126%. In data set [3] (setting [11]), the IC50 was < 1 nM.
For `CCOCCOC(=O)c1ccc(CN(C)c2ccc(-c3c(N)nc(N)nc3CC)cc2[N+](=O)[O-])cc1` [Compound 16], the figures for the IC50 (at rat liver DHFR (setting [10]); in data set [3] (setting [8])) were 1.5 nM and 40 nM, respectively.
Consider `CCCCNc1ccc(-c2c(N)nc(N)nc2CC)cc1[N+](=O)[O-]` [Compound 4, 2,4-Diamino-5-(4-n-butylamino-3-nitrophenyl)-6-ethylpyrimidine], for which the inhibition constant (Ki) at rat liver DHFR (Table II, rat liver DHFR, 95% confidence limits, tested as ethanesulphonate salt, read-out: Ki) was determined as 0.19 ± 0.05 nM. The response vs control in vivo at 240 mg/kg in data set [2] was determined as 206%. Besides, the IC50 in data set [3] (setting [11]) came to 200 nM.
As to `CCc1nc(N)nc(N)c1-c1ccc(N(C)Cc2ccc(OC)cc2)c([N+](=O)[O-])c1` [Compound 17, 2,4-Diamino-6-ethyl-5-{4-[N-(4-methoxybenzyl)-N-methylamino]-3-nitrophenyl}pyrimidine], the IC50 in data set [3] (setting [8]) worked out at 70 nM.
As to `CCc1nc(N)nc(N)c1-c1ccc(NC(C)c2ccccc2)c([N+](=O)[O-])c1` (racemic) [Compound 9, 2,4-diamino-6-ethyl-5-(4-(±)-α-methylbenzylamino-3-nitrophenyl)-pyrimidine], the response vs control in vivo at 30 mg/kg in data set [2] (optimum dose 30 mg/kg) was 132%.
In the case of `Cc1nc(N)nc(N)c1-c1ccc(Cl)c(Cl)c1` [metoprine, reference compound], the response vs control in vivo at 50 mg/kg in data set [2] (optimum dose 50 mg/kg) was found to be 140%.
For the molecule `CCc1nc(N)nc(N)c1-c1ccc(N(C)Cc2ccc(C(=O)OC)cc2)c([N+](=O)[O-])c1` [Compound 15, 2,4-Diamino-6-ethyl-5-{4-[N-(4-methoxycarbonylbenzyl)-N-methylamino]-3-nitrophenyl}pyrimidine], the IC50 in data set [3] (setting [8]) is 100 nM.
As to `CCc1nc(N)nc(N)c1-c1ccc(NC)c([N+](=O)[O-])c1` [Compound 1, 2,4-Diamino-5-(4-methylamino-3-nitrophenyl)-6-ethylpyrimidine], the response vs control in vivo at 100 mg/kg in data set [2] was 182%.
For the molecule `CCc1nc(N)nc(N)c1-c1ccc(N(CC)Cc2ccccc2)c([N+](=O)[O-])c1` [Compound 7, 2,4-Diamino-6-ethyl-5-(4-N-ethylbenzylamino-3-nitrophenyl)pyrimidine], the Ki on rat liver DHFR (setting [12]) amounted to 0.04 ± 0.03 nM. In addition, the response vs control in vivo at 200 mg/kg in data set [2] was found to be 144%.
As for `CCOc1ccc(-c2c(N)nc(N)nc2CC)cc1[N+](=O)[O-]` [OEt], at rat liver DHFR (setting [9]), the IC50 came to 140 nM.
For `CCc1nc(N)nc(N)c1-c1ccc(N(C)Cc2ccccc2)c([N+](=O)[O-])c1` [Compound 6, 2,4-Diamino-6-ethyl-5-(4-N-methylbenzylamino-3-nitrophenyl)pyrimidine], the response vs control in vivo at 480 mg/kg in data set [2] (optimum dose 480 mg/kg) was 205%.
On to `CCc1nc(N)nc(N)c1-c1ccc(N(C)C)c([N+](=O)[O-])c1` [Compound 3, 2,4-Diamino-5-(4-dimethylamino-3-nitrophenyl)-6-ethylpyrimidine], for which, in data set [2], the response vs control in vivo at 100 mg/kg is 145%.
Turning to `CCc1nc(N)nc(N)c1-c1ccc(N(C)Cc2ccc(C(=O)NC)cc2)c([N+](=O)[O-])c1` [Compound 19, 2,4-Diamino-6-ethyl-5-(4-{N-[4-(N-methylcarbamoyl)benzyl]-N-methylamino}-3-nitrophenyl)pyrimidine], the “T/C × 100” value came to 67 in data set [1] (setting [4]), 41 in data set [1] (setting [5]), 30 in data set [1] (setting [6]) and 15 in data set [1] (setting [7]). In data set [1] (ip, 12.5 mg/kg), this molecule showed a Tumor volume of 443 mm^3. In addition, the IC50 in data set [3] (setting [8]) amounted to 25 nM.
For the molecule `CCCCOc1ccc(-c2c(N)nc(N)nc2CC)cc1[N+](=O)[O-]` [OBu^n], the IC50 at rat liver DHFR (Table I, solvent A = water, tested as ethanesulphonate salt, read-out: I50, inhibition of rat liver DHFR) was determined as 60 nM. The Ki on rat liver DHFR (setting [12]) was 0.08 ± 0.06 nM.
